# Assay results as given in PMC7355684 (Pharmaceutics, 2020).
# Entries after “also recorded” stand apart in the source; their conditions may differ. Read-outs that look alike come from different tables or passages of the source. Where a SMILES comes first, the peptide text is derived from it. Side-chain parts run from the residue outwards. The star is where a group is joined. Daunorubicin(13-NOCH2CO) = COc1cccc2c1C(=O)c1c(O)c3c(c(O)c1C2=O)C[C@@](O)(C(C)=NOCC(=O)*)C[C@@H]3O[C@H]1C[C@H](N)[C@H](O)[C@H](C)O1
# Legend:
# Colo-205 cells = assay type: cell-based, human
# Description: (§1) EBC-1 and Colo-205 model cells have weak/negligible adherent properties, and A2058 cells could not produce constant cell index values. Therefore, a colorimetric assay (alamarBlue-assay) was chosen instead of the xCELLigence system to investigate the viability of these model cells treated with the conjugates. Due to the growth characteristics of NHDF cells, alamarBlue-assay was performed also on this cell line.
# (§2) The protocol for the alamarBlue-assay was similar to the method which was published earlier, with some minor modifications. Briefly, the cell seeding occurred on 96-well cell culture plates (Sarstedt AG, Nümbrecht, Germany) at 10^4 cells/well concentration. After a 24 h long culturing period, the treatment was carried out with the conjugates at 10^−4, 10^−5 and 10^−6 M final concentrations for 24, 48 and 72 h. In the next steps, the alamarBlue reagent (0.15 mg/mL, Sigma-Aldrich) dissolved in phosphate-buffered saline (PBS; pH = 7.2), was added to the wells. After 6 h incubation with the reagent, the fluorescence intensity of the samples was obtained by an LS-50B Luminescence Spectrometer (Perkin Elmer Ltd., Buckinghamshire, UK) or a Fluoroskan^TM FL Microplate Fluorometer and Luminometer (Thermo Scientific, Waltham, MA, USA) by using the following settings: λex = 560 nm and λem = 590 nm.
# (§3) Three parallels were performed per treatment group. In the case of controls, an equivalent volume of cell culture media was added to the cell. Fluorescence intensities of the samples treated with various concentrations of conjugates were expressed as a percentage of the fluorescence of control.
# EBC-1 cells = assay type: cell-based, human
# Description: as §1, §2, §3
# A2058 cells = assay type: cell-based, human
# Description: as §1, §2, §3
# PANC-1 cells = assay: cells; assay type: cell-based, human
# Description: This measurement is based on the registration of electrical resistance (impedance, Z) in alternating current (AC) field. The living cells transplanted to the gold measuring electrodes are physically insulated by phospholipid bilayer that covers them. This instrumentally measurable property changes (decreases) in response to cellular cytotoxic agents. Our measurements were performed on xCELLigence single plate (ACEA Biosciences, San Diego, CA, USA) dedicated for impedimetric analysis of cellular samples at 37 °C and 5% CO2.
# During the initial phase of the experiments—the baseline recording—a special 96-well cell culture plate, E-plate (ACEA Biosciences), equipped with measuring electrodes, was pretreated with freshly prepared cell culture medium (for 60 min; sampling frequency: 1 min). Subsequently, PANC-1 cells were plated at a cell density of 10^4 cells/well. During the 24 h incubation, the cells evenly covered the electrodes at the bottom of the wells of the E-plate. The resulting confluent cell cultures were then treated with the test substances at the following final concentrations: 10^−6, 10^−5, 10^−4 M. Total treatment duration was 72 h and the sampling rate was 1 min (0–24 h); and then 15 min (48–72 h). In our measurements, three replicates were used, the control was the drug-free medium. […] The CI results were analyzed with xCELLigence RTCA 2.0 software and Origin Pro 8.0 software.
# [1] = Lysosomal degradation of conjugates by LC-MS; assay type: in vitro ADME; conditions: rat liver lysosome homogenate, 0.2 M NaOAc pH 5.03, 0.025 μg/μL conjugate, 37 °C; for Time to complete lysosomal degradation: sampling up to 72 h
# Description: For the stability and metabolism studies of the conjugates, liquid chromatography–mass spectrometry (LC-MS) analyses were performed on a Q ExactiveTM Focus, high resolution and high mass accuracy, hybrid quadrupole-orbitrap mass spectrometer (Thermo Fisher Scientific, Bremen, Germany) using on-line UHPLC coupling. UHPLC separation was performed on a Dionex 3000 UHPLC system using a Supelco Ascentis C18 column (2.1 × 150 mm, 3 µm). Linear gradient elution (0 min 2% B, 1 min 2% B, 17 min 90% B) with eluent A (0.1% HCOOH in water, v/v) and eluent B (0.1% HCOOH in acetonitrile/water, 80:20, v/v) was used at a flow rate of 0.2 mL/min at 40 °C. High-resolution mass spectra were acquired in the 200–1600 m/z range. LC-MS data were analyzed by XcaliburTM software (Thermo Fisher Scientific) and with Origin Pro 8 (OriginLab Corp., Northampton, MA, USA).
# Conjugates were dissolved in distilled water in 2.5 μg/μL concentration followed by dilution with 0.2 M NaOAc solution (pH = 5.03) to 0.025 μg/μL. The lysosome-homogenate was prepared from rat liver and contained proteins in 16.6 μg/μL concentration. An aliquot (20 μL) of this stock solution was further diluted with […] 0.2 M NaOAc solution, therefore the final protein concentration was 0.83 μg/μL. To prepare the reaction mixture, 15 μL (0.83 μg/μL) lysosome homogenate was added to 500 μL (0.025 μg/μL) conjugate solution. Furthermore, a control reaction mixture was always prepared which contained 500 μL conjugate solution and 15 μL NaOAc solution only. The solutions were stirred on 600 rpm at 37 °C and samples (50 μL) were taken out at 0 min, 5 min, 15 min, 30 min, 1 h, 2 h, 6 h, 24 h, and 72 h. The enzymatic activity was quenched by adding 5 μL formic acid to the samples. After this procedure, samples were frozen immediately at −25 °C. Control samples were taken at 0 min, 15 min, 1 h, 6 h, 24 h and 72 h. Composition of the samples was determined by HPLC-MS as described above.
# [2] = lysosome-homogenate prepared from rat liver, in 0.2 M NaOAc solution (pH = 5.03); conditions: 37 °C, up to 72 h
# [3] = alamarBlue fluorescence normalized to control wells, 10^-5 M, mean ± SD, n=3
# [4] = PANC-1, impedimetry, cell index normalized to control wells, 10^−5 M, mean ± SD, n = 3
compound,measurement,setting,value
"COc1cccc2c1C(=O)c1c(O)c3c(c(O)c1C2=O)C[C@@](O)(C(C)=NOCC(=O)N[C@@H](CO)C(=O)N[C@@H](CCCCN)C(=O)N[C@@H](C)C(=O)N[C@@H](C)C(=O)N[C@@H](CCCCN)C(=O)N[C@@H](CC(N)=O)C(=O)O)C[C@@H]3O[C@H]1C[C@H](N)[C@H](O)[C@H](C)O1 [conjugate 1, Dau=Aoa-SKAAKN-OH] ({Daunorubicin(13-NOCH2CO)}-SKAAKN-OH)","Viability (%) at 10-5 M concentration, after 72 h incubation, Colo-205",Colo-205 cells; 1e-5 M,50.7 ± 1.6%
same,"Viability (%) at 10-5 M concentration, after 72 h incubation, EBC-1",EBC-1 cells; 1e-5 M,77.8 ± 1.0%
same,"Viability (%) at 10-5 M concentration, after 72 h incubation, A2058",A2058 cells; 1e-5 M,61.5 ± 2.7%
same,Viability after 24 h treatment at 10^−4 M (initial CI increase),"PANC-1 cells; 24 h, 1e-4 M",224.1 ± 18.73%
same,"Viability (%) at 10^−5 M Concentration, After 72 h Incubation",PANC-1 cells; 1e-5 M,112.5 ± 5.1%
"COc1cccc2c1C(=O)c1c(O)c3c(c(O)c1C2=O)C[C@@](O)(C(C)=NOCC(=O)N[C@@H](CCCCN)C(=O)N[C@@H](CO)C(=O)N[C@@H](CCCCN)C(=O)N[C@@H](C)C(=O)N[C@@H](C)C(=O)N[C@@H](CCCCN)C(=O)N[C@@H](CC(N)=O)C(=O)O)C[C@@H]3O[C@H]1C[C@H](N)[C@H](O)[C@H](C)O1 [conjugate 2, Dau=Aoa-KSKAAKN-OH] ({Daunorubicin(13-NOCH2CO)}-KSKAAKN-OH)",Speed of lysosomal degradation (in words),[1],very fast
"COc1cccc2c1C(=O)c1c(O)c3c(c(O)c1C2=O)C[C@@](O)(C(C)=NOCC(=O)NCC(=O)N[C@@H](Cc1ccccc1)C(=O)N[C@@H](CC(C)C)C(=O)NCC(=O)N[C@@H](CCCCN)C(=O)N[C@@H](CO)C(=O)N[C@@H](CCCCN)C(=O)N[C@@H](C)C(=O)N[C@@H](C)C(=O)N[C@@H](CCCCN)C(=O)N[C@@H](CC(N)=O)C(=O)O)C[C@@H]3O[C@H]1C[C@H](N)[C@H](O)[C@H](C)O1 [conjugate 3, Dau=Aoa-GFLG-KSKAAKN-OH] ({Daunorubicin(13-NOCH2CO)}-GFLGKSKAAKN-OH)","Viability (%) at 10-5 M concentration, after 72 h incubation, Colo-205",Colo-205 cells; [3],59.3 ± 3.6%
same,"Viability (%) at 10-5 M concentration, after 72 h incubation, EBC-1",EBC-1 cells; [3],76.2 ± 13.7%
same,"Viability (%) at 10-5 M concentration, after 72 h incubation, A2058",A2058 cells; [3],79.4 ± 17.6%
same,Time to complete lysosomal degradation,[1],≤ 1 h
same,"Viability (%) at 10^−5 M Concentration, After 72 h Incubation",PANC-1 cells; [4],105.1 ± 1.9%
"COc1cccc2c1C(=O)c1c(O)c3c(c(O)c1C2=O)C[C@@](O)(C(C)=NOCC(=O)NCC(=O)N[C@@H](Cc1ccccc1)C(=O)N[C@@H](CC(C)C)C(=O)NCC(=O)NCCCC[C@H](NC(=O)CNC(=O)[C@H](CC(C)C)NC(=O)[C@H](Cc1ccccc1)NC(=O)CNC(=O)CON=C(C)[C@]1(O)Cc2c(O)c4c(c(O)c2[C@@H](O[C@H]2C[C@H](N)[C@H](O)[C@H](C)O2)C1)C(=O)c1c(OC)cccc1C4=O)C(=O)N[C@@H](CO)C(=O)N[C@@H](CCCCN)C(=O)N[C@@H](C)C(=O)N[C@@H](C)C(=O)N[C@@H](CCCCN)C(=O)N[C@@H](CC(N)=O)C(=O)O)C[C@@H]3O[C@H]1C[C@H](N)[C@H](O)[C@H](C)O1 [conjugate 5, Dau=Aoa-GFLG-K(Dau=Aoa-GFLG)SKAAKN-OH] ({Daunorubicin(13-NOCH2CO)}-GFLGK([Gly-Leu-Phe-Gly-Daunorubicin(13-NOCH2CO)])SKAAKN-OH)","Viability (%) at 10-5 M concentration, after 72 h incubation, Colo-205",Colo-205 cells; [3],45.8 ± 2.6%
same,"Viability (%) at 10-5 M concentration, after 72 h incubation, EBC-1",EBC-1 cells; [3],57.6 ± 11.1%
same,"Viability (%) at 10-5 M concentration, after 72 h incubation, A2058",A2058 cells; [3],61.9 ± 11.6%
same,Time to complete lysosomal degradation,[1],> 72 h
same,"Viability (%) at 10^−5 M Concentration, After 72 h Incubation",PANC-1 cells; [4],31.3 ± 1.8%
same,Viability after 24 h,"PANC-1 cells; PANC-1, impedimetry, 10^−5 M, 24 h (Figure 1A)",34%
COc1cccc2c1C(=O)c1c(O)c3c(c(O)c1C2=O)C[C@@](O)(C(C)=NOCC(=O)N[C@@H](CO)C(=O)N[C@@H](CCCCN)C(=O)N[C@@H](C)C(=O)N[C@@H](C)C(=O)N[C@@H](CCCCN)C(=O)N[C@@H](CC(N)=O)C(=O)O)C[C@@H]3O[C@H]1C[C@H](N)[C@H](O)[C@H](C)O1 [conjugates 1] ({Daunorubicin(13-NOCH2CO)}-SKAAKN-OH),Speed of lysosomal degradation (in words),[1],very fast
Dau=Aoa-GFLG-K(Dau=Aoa-GFLG)SKAAKN-OH,fragment found,[2],"Dau=Aoa-G-OH, minor; also recorded: Dau=Aoa-GF-OH; also recorded: Dau=Aoa-GFL-OH; also recorded: H-K(Dau=Aoa-GFLG)SK-OH; also recorded: H-K(Dau=Aoa-GFLG)SKAA-OH; also recorded: H-K(Dau=Aoa-GFLG)SKAAKN-OH"
Dau=Aoa-GFLG-KSKAAKN-OH,fragment found,[2],"Dau=Aoa-GFL-OH; also recorded: Dau=Aoa-GFLGK-OH; also recorded: Dau=Aoa-GFLGKSK-OH, first_seen, 0 min; also recorded: Dau=Aoa-GFLGKSKAA-OH, first_seen, 0 min; also recorded: Dau=Aoa-G-OH, 30 min; also recorded: Dau=Aoa-GF-OH, major, 30 min"
Dau=Aoa-KSKAAKN-OH,fragment found,[2],"Dau=Aoa-K-OH, minor, 30 min; also recorded: Dau=Aoa-KS-OH, 15 min; also recorded: Dau=Aoa-KSK-OH"
Dau=Aoa-SKAAKN-OH,fragment found,[2],"Dau=Aoa-S-OH, 0 min; also recorded: Dau=Aoa-SK-OH, 0 min"
